Several values for one entry are separate records, joined by “and”; a condition that tells them apart may be missing. Equal entries are not always repeated.
Test system: scalp of male volunteers
Assay: Double-blind placebo-controlled clinical study, hair diameter measurement by hair clipping
Assay type: in vivo, human
Conditions: after 32-51 days of treatment, one volunteer per row
Experimental: […] The male volunteers had been under treatment of a 5-alpha-reductase inhibitor treatment (Finasteride 1 mg) started within the last 3 months, or for the last three years. The first objective is to assess if the hair diameter of volunteers under a 5-alpha-reductase inhibitor (Finasteride 1 mg) and Cellium (TRADEMARK) GC 210 mg/mL is higher than on volunteers under a 5-alpha-reductase inhibitor (Finasteride 1 mg) and placebo only. The hair diameters were compared using a starting or initial hair diameter measurement and a post-study hair diameter measurement as quantified later herein. The second objective is to evaluate the cosmetic acceptance in the studied population. A prospective, double-blind, monocentric, randomized testing along with a placebo testing is conducted with two parallel groups. […] Information on self-assessed effectiveness, appreciation, and overall satisfaction was solicited from volunteers using a questionnaire. […] Exemplary secondary criteria include photographic documentation for qualitative purposes and also self-assessed effectiveness, appreciation, and overall satisfaction as indicated by a questionnaire given to participants. […]

With `CC(C)(C)NC(=O)[C@H]1CC[C@H]2[C@@H]3CC[C@H]4NC(=O)C=C[C@]4(C)[C@H]3CC[C@]12C` [Finasteride + Placebo, Finasteride] the “Variation of diameter (in %)” value (relative to first diameter) was 4.4% and −0.7% and −2.4% and the “Variation of diameter (μm)” value (second minus first diameter) was 2.2 μm and −0.3 μm and −1.2 μm.
